Article PMC6718442, “11β-Hydroxysteroid dehydrogenases control access of 7β,27-dihydroxycholesterol to retinoid-related orphan receptor γ” (Journal of Lipid Research, 2019)
“And” between values parts separate entries of the source, which are not always exact repeats. Equal values may be shown once. Read-outs that look alike come from different tables or passages of the source.

Tests used:
human 11β-HSD1 [1] = molecular target: T1, human 11β-HSD1 (Homo sapiens, UniProt P28845); test: 11β-HSD1-dependent metabolism of 7-oxygenated 27OHCs in intact HEK-293 cells expressing 11β-HSD1 and H6PDH; type: cell-based; conditions: for Metabolism by 11β-HSD1 in intact cells (in words): 1 μM substrate, 60 min
T1 construct: expressed in transfected cells
Experimental: Fifty thousand stably transfected HEK-293 cells expressing either 11β-HSD2 [clone AT8 ([34])] or 11β-HSD1 and hexose-6-phosphate dehydrogenase (H6PDH) [clone HHH7 ([35])] were seeded in poly-L-lysine-coated 96-well plates and incubated for 24 h. H6PDH provides the cofactor NADPH and is required for an efficient oxoreduction reaction by 11β-HSD1 ([36]). The medium was changed to steroid- and phenol red-free DMEM (DMEM SF) for another 2 h and the cells were then treated with 1 μM of 7k27OHC in the presence or absence of 1 μM of T0504 (to inhibit 11β-HSD1) or 0.5 μM of 7β27OHC or 7α27OHC in the presence or absence of 5 μM of glycyrrhetinic acid (GA) (to inhibit 11β-HSD2). Metabolic conversion was determined after 0.5 h for 11β-HSD2 and after 1 h for 11β-HSD1.
Ice-cold acetonitrile:isopropanol (7:3, v/v) mixture containing either 100 nM deuterium-labeled 7β27OHC or corticosterone as internal standards were used to extract oxysterols from cell culture supernatants. Additionally, 1.5% (v/v) of a standard solution of the antioxidant butylated hydroxytoluene (BHT) and the peroxide reducing agent triphenylphosphine (TPP) (10 mg BHT and 25 mg TPP in 10 ml ethanol) was added ([37]). In experiments with SW-620 cells, oxysterols were extracted from cell supernatants and cells. The samples were incubated for 30 min at 4°C and 700 rotations per minute, centrifuged (16,000 g, 10 min, 4°C), and the supernatant evaporated to dryness under nitrogen to minimize oxidation from atmospheric oxygen. After reconstitution in 50 μl of methanol:ultra-pure water (1:1, v/v), the samples were again centrifuged (16,000 g, 10 min, 4°C) and the supernatants analyzed. Data (mean ± SD) were obtained from three independent experiments.
An Agilent 1290 Infinity UHPLC binary solvent delivery system including a temperature controlled autosampler and a column oven coupled to an Agilent 6490 triple quadrupole mass spectrometer with a jet stream electrospray ionization interface (AJS-ESI) (Agilent Technologies) was used to analyze oxysterols. A reversed-phase column (ACQUITY UPLC BEH C18, 1.7 μm, 2.1 × 150 mm; Waters, Wexford, Ireland) heated to 65 ± 0.8°C was applied for analyte separation. The flow-rate was 0.5 ml with solvent A [water/acetonitrile/formic acid (95/5/0.1, v/v/v)] and solvent B [water/acetonitrile/formic acid (5/95/0.1, v/v/v)]. The eluent gradient was set as follows: 0–4.5 min 45–97% B, 4.5–7 min 80% B (washout), and 7–9 min 45% B (column re-equilibration). Methanol/water (75/25, v/v) was used as needle and needle-seat flushing solvent for 10 s after sample aspiration. The samples were stored in the autosampler at 4°C until analysis. […]

human 11β-HSD1 [2] = molecular target: T1, human 11β-HSD1; test: Inhibition of 11β-HSD1-dependent oxoreduction of cortisone in HEK-293 cell lysates; type: biochemical; conditions: for IC50: human enzyme, 200 nM cortisone, read-out: IC50, 11β-HSD1-dependent conversion of cortisone to cortisol
Experimental: 11β-HSD1 and 11β-HSD2 enzyme activities were assessed in lysates of HEK-293 cells stably expressing the respective enzyme as reported earlier ([40]). Briefly, 11β-HSD1-dependent oxoreductase activity was determined by the incubation of lysates with 200 nM of radiolabeled cortisone, 500 μM of NADPH, and the test substance or vehicle for 10 min at 37°C. 11β-HSD2-dependent oxidation of cortisol was measured instead by the addition of 50 nM of radiolabeled cortisol and 500 μM of NAD^+. The enzymatic reaction was stopped by introducing an excess amount of unlabeled cortisone and cortisol (1:1, 2 mM unlabeled each, in methanol). Cortisone and cortisol were separated using TLC and a chloroform and methanol (9:1, v/v) mixture. The bands were detected under UV light, scraped off the plate, and metabolism of the radiolabeled substrate was then evaluated by scintillation counting and the substrate conversion determined and compared with the control sample. Data (mean ± SD) were normalized to the control (DMSO) sample and obtained from at least three independent experiments.

T1 sequence (P28845 whole entry): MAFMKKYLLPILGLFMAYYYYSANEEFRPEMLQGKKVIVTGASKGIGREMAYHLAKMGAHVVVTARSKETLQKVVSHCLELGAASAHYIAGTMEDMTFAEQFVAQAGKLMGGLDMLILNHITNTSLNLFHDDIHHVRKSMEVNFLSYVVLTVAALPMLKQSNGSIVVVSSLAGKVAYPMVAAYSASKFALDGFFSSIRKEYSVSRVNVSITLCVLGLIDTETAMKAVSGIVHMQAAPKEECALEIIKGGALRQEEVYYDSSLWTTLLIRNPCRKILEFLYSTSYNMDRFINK

Inhibition of human 11β-HSD1 enzyme activity (in words) (human 11β-HSD1 [2]; concentrations up to 10 μM, data not shown)	SMILES	Metabolism by 11β-HSD1 in intact cells (in words) (human 11β-HSD1 [1])	Vapp cell intact (human 11β-HSD1 [1]; intact HEK-293 cells, substrate concentration 1 μM)	IC50 (human 11β-HSD1 [2]; 10 min, 37°C) [nM]	IC50 (human 11β-HSD1 [2]) [nM]
	CC(CO)CCC[C@@H](C)[C@H]1CC[C@H]2[C@@H]3C(=O)C=C4C[C@@H](O)CC[C@]4(C)[C@H]3CC[C@]12C (stereo partly shown) [7k27OHC, 7-keto,27-hydroxycholesterol]	stereo-specifically converted to 7β27OHC	0.52 ± 0.10 nmol·h^−1·mg total protein^−1 and 0.52 ± 0.10^a nmol·h^−1·mg total protein^−1	357 ± 38	
did not inhibit the enzyme activity	C[C@@H](CO)CCC[C@@H](C)[C@H]1CC[C@H]2[C@@H]3[C@H](O)C=C4C[C@@H](O)CC[C@]4(C)[C@H]3CC[C@]12C [7α27OHC]	neither 7α27OHC nor 7β27OHC was oxidized			
	CC(CO)CCC[C@@H](C)[C@H]1CC[C@H]2[C@@H]3[C@@H](O)C=C4C[C@@H](O)CC[C@]4(C)[C@H]3CC[C@]12C (stereo partly drawn) [7β27OHC, 7β,27-dihydroxycholesterol]	neither 7α27OHC nor 7β27OHC was oxidized			≥ 3000
